# Laboratory results as given in paper PMC4434572, “Identification of novel drugs to target dormant micrometastases” (BMC Cancer, 2015).
# Like-named read-outs stand apart in the source and are kept apart here.
# System: cancer cells on SISgel or plastic
# Assay: Activity of leads and analogs on cancer cells grown on plastic vs SISgel (cell line not stated)
# Assay type: cell-based
# Details: for Hit: YES/NO; for SR: ratio IC50-p/IC50-S
# Method: The NCI library is no longer available in the form used here, but how it was constructed is described (http://dtp.nci.nih.gov/branches/dscb/diversity_explanation.html). The ChemBridge library is a subset (Set Code NM1024) of the full 50,000 compound library (http://www.chembridge.com/screening_libraries/diversity_libraries/). Compounds were diluted to 100 μM before use. SISgel was prepared as described previously from powdered porcine small intestine submucosa obtained from Cook Biotech (W. Lafayette, IN). It is a natural product that is used extensively in tissue engineering as a bioscaffold. J82 bladder cancer cells and other cell lines were obtained from the ATCC (Bethesda, MD). […] Efficacy in vitro was assessed by plating 30,000 cells in 50 μL of high glucose DMEM with penicillin-streptomycin and 10 % fetal calf serum on SISgel in a 96-well plate containing 50 μL of gelled SISgel per well. Cells were allowed to attach and assume the SISgel phenotype for 48 h. A matching plate without SISgel was prepared 24 h later by pipetting 3,000 cells in 100 μL of high glucose DMEM with penicillin-streptomycin and 10 % fetal calf serum into each well of 96 well plate. The cells were allowed to attach and grow for 24 h. […] The cells were exposed to drug in fresh medium for 48 h, at which time the cell number was determined using the CFDA-AM cellular esterase proliferation assay (cat. #C1354, Life Technologies). For screening the results are reported as the ratio of cell count of cells on the plastic surface to the cell count on SISgel. An initial difference of 1.5 fold identified potential hits. All potential hits were confirmed in triplicate. […] Data were analyzed using nonlinear regression to a sigmoid curve with Prism 4 (GraphPad Software, Inc., LaJolla, CA). […]
# [1] = cells on SISgel, read-out: IC50-S
# [2] = cells on plastic, read-out: IC50-p
Compound,Hit,IC50 [1] [µM],IC50 [2] [µM],SR,IC50 (read-out: IC50-S) [µM],IC50 (read-out: IC50-p) [µM]
O=S(=O)([O-])c1ccccc1N=Nc1c(S(=O)(=O)[O-])cc2cc(S(=O)(=O)[O-])c(N=Nc3ccccc3S(=O)(=O)[O-])c(O)c2c1O.[Na+].[Na+].[Na+].[Na+] [Sulfanazo II],YES,34,57,2,–,–
O=S(=O)([O-])c1ccc2c(N=Nc3c(O)cc(S(=O)(=O)[O-])c4ccccc34)c(O)c(S(=O)(=O)[O-])cc2c1.[Na+].[Na+].[Na+] [HydroxyNapthol Blue],YES,64,135,2.1,–,–
Cc1ccc(N=Nc2c(O)c(S(=O)(=O)[O-])cc3cc(S(=O)(=O)[O-])ccc23)c(C)c1.[Na+].[Na+] [Acid Red 26],–,604,154,0.26,–,–
O=[N+]([O-])c1ccc(N=Nc2c(S(=O)(=O)[O-])cc3cc(S(=O)(=O)[O-])cc(O)c3c2O)cc1.[Na+].[Na+] [Chromotrope 2B],YES,40,71,1.8,–,–
Cc1cc(C)c(S(=O)(=O)[O-])cc1N=Nc1cc(S(=O)(=O)[O-])c2ccccc2c1O.[Na+].[Na+] [Ponceau SX],YES,54.1,208,3.8,–,–
O=S(=O)([O-])c1cc(Nc2nc(Cl)nc(Cl)n2)c2c(O)c(N=Nc3ccccc3)c(S(=O)(=O)[O-])cc2c1.[Na+].[Na+] [Procion Red Mx - 5B],–,57,77,1.4,–,–
nitrazine Yellow,YES,33,65,2.0,–,–
O=S(=O)([O-])c1ccc2c(N=Nc3ccc(S(=O)(=O)[O-])c4ccccc34)c(O)c(S(=O)(=O)[O-])cc2c1.[Na+].[Na+].[Na+] [Amaranthe],–,26,33,1.3,–,–
CC(=O)Nc1cc(S(=O)(=O)[O-])cc2cc(S(=O)(=O)[O-])c(N=Nc3ccccc3)c(O)c12.[Na+].[Na+] [Acid Red 1],YES,13,33,2.6,–,–
COc1ccccc1N=Nc1c(S(=O)(=O)[O-])cc2cc(S(=O)(=O)[O-])cc(NC(C)=O)c2c1O.[Na+].[Na+] [Pontacyl Carmine 2B],YES,24,53,2.2,–,–
O=S(=O)([O-])c1cc(O)c2c(O)c(N=Nc3ccccc3)c(S(=O)(=O)[O-])cc2c1.[Na+].[Na+] [Chromotrope 2R],–,94,92,0.98,–,–
O=S(=O)([O-])c1cc(O)c2c(N=Nc3c(S(=O)(=O)[O-])cc4cc(S(=O)(=O)[O-])cc(O)c4c3O)cc(S(=O)(=O)[O-])cc2c1.[Na+].[Na+].[Na+].[Na+] [Beryllon II],YES,33,94,3,–,–
Cc1ccc(N=Nc2c(O)c(S(=O)(=O)[O-])cc3cc(S(=O)(=O)[O-])ccc23)c(C)c1.[Na+].[Na+] [Ponceau Xylidine],YES,15,38,2.6,–,–
O=S(=O)([O-])c1cc2cc(S(=O)(=O)O)ccc2c(N=Nc2c(O)cc(S(=O)(=O)[O-])c3ccccc23)c1O.[Na+].[Na+] [Hydroxy Naphthol Blue],YES,72,146,2.0,–,–
O=S(=O)([O-])c1ccc(N=Nc2c(O)ccc3ccccc23)cc1.[Na+] [Acid Orange 7],–,400,114,0.29,–,–
Nc1c(N=Nc2cccc([N+](=O)[O-])c2)c(S(=O)(=O)[O-])cc2cc(S(=O)(=O)[O-])c(N=Nc3ccccc3)c(O)c12.[Na+].[Na+] [Acid Blue 29],–,122,212,1.7,–,–
O=S(=O)([O-])c1cc(S(=O)(=O)[O-])c2c(N=Nc3ccc(S(=O)(=O)[O-])c4ccccc34)c(O)c(S(=O)(=O)[O-])cc2c1.[Na+].[Na+].[Na+].[Na+] [Ponceau 6R],–,107,124,1.2,–,–
Cn1c(=O)c2[nH]c(-c3ccc(S(=O)(=O)O)cc3)nc2n(C)c1=O.O [8-(p-Sulfophenyl)theophylline hydrate],–,–,–,2.5,140,346
O=S(=O)(O)c1cc2cc(S(=O)(=O)O)c(N=Nc3ccccc3[As](=O)(O)O)c(O)c2c(O)c1N=Nc1ccccc1[As](=O)(O)O [Arsenazo III],–,34,47,1.4,–,–

Compound,Hit,IC50 [1] [µM],IC50 [2] [µM],SR,IC50 (read-out: IC50-S) [µM],IC50 (read-out: IC50-p) [µM]
O=S(=O)(O)c1ccc2c(O)c(N=Nc3cccc4ccccc34)c(S(=O)(=O)O)cc2c1.[Na+] [Acid Dye (Azo Red)],–,21,23,1,–,–
CCOc1ccc(Nc2ccc(C(=C3C=CC(=[N+](CC)Cc4cccc(S(=O)(=O)[O-])c4)C=C3C)c3ccc(N(CC)Cc4cccc(S(=O)(=O)[O-])c4)cc3C)cc2)cc1.[Na+] [Comassie Brilliant Blue],–,125,201,1.6,–,–
O=S(=O)([O-])c1cc(S(=O)(=O)[O-])c2c(N=Nc3ccc(N=Nc4ccccc4)cc3)c(O)ccc2c1.[Na+].[Na+] [Brilliant Crocein Moo],YES,47,82,1.8,–,–
O=S(=O)(O)c1ccc(N=Nc2ccc3c(S(=O)(=O)O)cccc3c2O)c2ccccc12.[Na+] [Chromotrope F4B],YES,50,90,1.8,–,–
O=S(=O)([O-])c1ccc(N=Nc2c(S(=O)(=O)[O-])cc3cc(S(=O)(=O)[O-])cc(O)c3c2O)cc1.[Na+].[Na+].[Na+] [Sulfanilic Acid Azochromotrop],YES,19,38,2.0,–,–
Cc1cc(-c2ccc(/N=N/c3c(S(=O)(=O)O)cc4cc(S(=O)(=O)O)cc(N)c4c3O)c(C)c2)ccc1/N=N/c1c(S(=O)(=O)O)cc2cc(S(=O)(=O)O)cc(N)c2c1O [Trypan Blue],YES,36,159,4.5,–,–
Nc1cc(S(=O)(=O)[O-])cc2cc(S(=O)(=O)[O-])c(N=Nc3cc([N+](=O)[O-])ccc3O)c(O)c12.[Na+].[Na+] [Palatine Chrome Green],–,70,74,1.1,–,–
O=S(=O)([O-])c1cc(Cl)cc(N=Nc2ccc3c(S(=O)(=O)[O-])cccc3c2O)c1O.[Na+].[Na+] [Mordant Blue 9],–,176,323,1.8,–,–
O=S(=O)(O)c1cc(Cl)cc(N=Nc2c(S(=O)(=O)O)cc3cc(S(=O)(=O)O)c(N=Nc4cc(Cl)cc(S(=O)(=O)O)c4O)c(O)c3c2O)c1O [Sulfochlorophenol S],YES,23,46,2.0,–,–
Cc1ccc(NC(=O)c2cc3ccccc3c(N=Nc3cc(S(=O)(=O)[O-])ccc3O)c2O)c(C)c1.[Na+] [Xylidyl Blue 1],YES,45,106,2.4,–,–
CCN(CC)c1ccc(C(=C2C=CC(=[N+](CC)CC)C=C2)c2ccc(S(=O)(=O)[O-])cc2S(=O)(=O)[O-])cc1.[Na+] [Acid Blue 1],–,194,318,1.6,–,–
O=S(=O)(O)c1cc(O)c2c(N=Nc3c(S(=O)(=O)O)cc4cc(S(=O)(=O)O)cc(N=Nc5c(S(=O)(=O)O)cc6cc(S(=O)(=O)O)cc(O)c6c5O)c4c3O)cc(S(=O)(=O)O)cc2c1 [Calichrome],–,375,464,1.2,–,–
CCN(Cc1cccc(S(=O)(=O)[O-])c1)c1ccc(C(=C2C=CC(=[N+](CC)Cc3cccc(S(=O)(=O)[O-])c3)C=C2)c2ccccc2)cc1.[Na+] [Acid Green 3],–,666,492,0.74,–,–
O=S(=O)([O-])c1ccc(N=Nc2c(O)ccc3cc(S(=O)(=O)[O-])ccc23)cc1.[Na+].[Na+] [Sunset Yellow FCF],YES,31,67,2.2,–,–
CCN(Cc1cccc(S(=O)(=O)[O-])c1)c1ccc(C(=C2C=CC(=[N+](CC)Cc3cccc(S(=O)(=O)[O-])c3)C=C2)c2ccccc2Cl)cc1.[Na+] [Alizarin Green],–,621,414,0.67,–,–
Cc1nc(N=Nc2ccc(S(=O)(=O)O)cc2S(=O)(=O)O)c(COP(=O)(O)O)c(C=O)c1O [PPADS],–,293,419,1.4,–,–
Cc1cc(C)c(N=Nc2c(O)c(S(=O)(=O)[O-])cc3cc(S(=O)(=O)[O-])ccc23)cc1C.[Na+].[Na+] [Ponceau 3R],–,111,146,1.3,–,–
O=S(=O)(O)c1ccc2c(N=Nc3c(O)c(S(=O)(=O)O)cc4cc(S(=O)(=O)O)ccc34)c(O)c(S(=O)(=O)O)cc2c1 [2-2-dihydroxy-1-1-azo-naphthalene-3-3-6],–,111,213,1.9,–,–
